Test results from paper PMC10082216 (Nature Communications, 2023).
Where two headings read alike, the source gives them in different places.

What was measured:
[1] = system: mature stage V gametocytes (NF54 strain); experiment: High-throughput screening: killing effect by MitoTracker staining, primary screening at 1.11 µM and dose-response analysis; type: cell-based, Plasmodium falciparum; conditions: stage V gametocytes NF54, 24 h, dose-response analysis, N/A = not active in dose-response analysis, read-out: Killing IC50
Method: (§1) Screening was conducted as previously described. Briefly, mature stage V gametocytes (NF54 strain) were cultured in vitro, then exposed to the explored compounds and filtered thereafter through layers of microspheres (microsphiltration)[25],[28]. Stiffening activity was determined by comparing gametocytemia up and downstream from the microsphere layers after filtration of drug-exposed gametocytes in 384-well plates using a vacuum manifold. Gametocytemia was assessed using DNA (Sybr Green) and erythrocyte membrane (CellMask) staining. Killing effect was assessed by MitoTracker staining. We screened two small libraries, specifically the Pathogen Box from the Medicine for Malaria Venture and the Kinase Inhibitors Box from GSK (400 and 350 compounds, respectively, Fig. 1A, B), and furthermore the larger ReFrame repurposing library (12,805 compounds, Fig. 1C).
(§2) The Pathogen Box library (400 compounds, provided by MMV-Medicine for Malaria Ventures, Geneva, Switzerland), the Kinase Inhibitors Box library (350 compounds, provided by GSK-Glaxo SmithKline DDW Unit, Tres Cantos, Spain), and the ReFrame library (12,805 compounds provided by the California Institute for Biomedical Research-Calibr, La Jolla, CA, USA) were used according to the providers’ instructions. DMSO-solubilized compounds (10 mM stock concentration) were loaded in 384-well plates (Seahorse, cat. no. 201035−100). Two columns were left empty for the controls. For each compound, 5 nL were pre-spotted in a single well to reach a final concentration of 1.11 μM. The final volume for each well was 45 μl. Controls were prepared as follows: 22.5 nL of DMSO were loaded in 16 wells as negative controls (0.05% final concentration); 22.5 nL of NITD609 (provided by MMV, Geneva, Switzerland) 1 mM were loaded in 8 wells (0.5 μM final concentration), 17 nL of Calyculin A (Sigma, cat. no. C5552) […] were loaded in 6 wells (75 nM final concentration) and 225 nL of Gentian Violet (MolPort, cat. no. 002-133-551) 10 mM were loaded in the remaining 2 wells (50 μM final concentration). Plates were prepared in triplicate for the Pathogen Box and sextuplicate for the Kinase Inhibitors Box.
(§3) Plasmodium falciparum NF54 strain parasites (used for screening campaign) were cultured at 4% hematocrit in RBCs from informed blood donors (blood group A) as previously described. Parasites were taken from the -80 °C freezer, then rapidly melt for 1 minute in a 37 °C water bath. A saline solution was gently added to avoid the lysis. Firstly, NaCl dissolved at 12% in distilled water (1/5 of the volume measured in the cryovial) and then NaCl dissolved at 1.6% (9 times the cryovial’s volume). After that, fresh RBCs were added to allow parasites re-growth. Infected RBCs were kept in RPMI medium (Sigma-Aldrich, cat. no. R4130), supplemented with 10% of decomplemented human serum, hypoxanthine 50 mg/l (Sigma-Aldrich, cat. no. H9636). Biobank of Castilla y Leon and Centro de Transfusiones de Madrid as providers of human red blood cell concentrates. The production of gametocytes was induced from a 0.5% ring-stage parasitemia (day 0). Medium was changed daily to induce gametocytes differentiation, as previously described. At day 17, gametocytes were concentrated using a density gradient medium (NycoPrep 1.077, Progen cat. no. 1114550)[27]. Parasitemia was adjusted by FACS (SYBR-Green and MitoTracker double staining, 3–5% targeted). Hematocrit was adjusted to 0.5% by adding fresh RBCs and controlled by manual counting in a Neubauer chamber (Celeromics, cat. no. 717810). Finally, the gametocyte suspension was poured (45 μL/well) into the compound-containing 384-well microplate, then incubated 24 hours both for the screening campaign and the dose-response analysis. Both asexual and sexual stages were cultivated in RPMI 1640 supplemented with 25 mM HEPES, 50 mg/L hypoxanthine, 50 μg/mL gentami-cin, 10% pooled heat-inactivated human serum (A^+).

human subjects = conditions: cited from earlier work; for AE (%) / SAE (%): healthy volunteers
[2] = system: mature stage V gametocytes (NF54 strain); experiment: microbe, parasite or virus in culture; type: cell-based, Plasmodium falciparum
Method: as §1, §2, §3

[3] = Hit scoring on safety in human subjects and pharmacokinetics; conditions: for Score (PK): peak plasma concentration vs IC50
Text: Hits from the ReFrame library were further selected based on safety, preferably oral administration (high score if oral), and potential availability for widespread use.

HEK293T = conditions: cited from earlier work
HepG2 = conditions: cited from earlier work
P.falciparum Dd2 = system: P.falciparum Dd2; parameters: method as in previously published reports (Table S1 legend); conditions: 72 h; results in previous assays; ref previously published reports (Table S1 legend); read-out: 72-h Dd2-SybrGreen PBFS assay IC50; cited from earlier work
[4] = cited from earlier work
[5] = Plasmodium falciparum, NF54, 24 h
[6] = Plasmodium falciparum, NF54, 24 h, read-out: Stiffening IC50 (retention)
[7] = stage V gametocytes NF54, 24 h, dose-response analysis, N/A = not active in dose-response analysis, read-out: Stiffening IC50 (retention)
[8] = 50 mg single dose, ref NCT01937975
[9] = healthy volunteers, 50 mg single dose, ref NCT01937975
[10] = read-out: Cellular cytotoxicity assay IC50, HEK293T, 72 h, first value of cell, ref previously published reports (Table S1 legend)
[11] = read-out: Cellular cytotoxicity assay IC50, HepG2, 72 h, second value of cell, ref previously published reports (Table S1 legend)
[12] = 90 mg single dose in combination with sofosbuvir 400 mg, ref CTR20160149
[13] = healthy volunteers, 90 mg single dose in combination with sofosbuvir 400 mg, ref CTR20160149
[14] = 100 mg single dose in combination with sofosbuvir 400 mg, ref CTR20160602
[15] = healthy volunteers, 100 mg single dose in combination with sofosbuvir 400 mg, ref CTR20160602

CN(C)Cc1c(C(=O)NCCOc2ccc(C(=O)NO)cc2)oc2ccccc12 [Abexinostat]
IC50 [1, 5]: 2000 nM
patients with significant adverse events (human subjects; human, in vivo): more than 15%
IC50 [2, 6]: 640 nM
Score (safety) [3]: 0
Score (PK) [3]: 0

O=C(CC1NCCCC1O)Cn1cnc2cc(Br)c(Cl)cc2c1=O (stereo not shown) [Halofuginone]
IC50 (HEK293T): 89 nM
IC50 ([1]; Plasmodium falciparum): 240 nM
IC50 (HepG2): 36 nM
IC50 [2, 6]: 4300 nM
IC50 (P.falciparum Dd2): 1 nM
Score (safety) ([3]; human): 3

CC(C)[C@H](C(=O)Nc1ccc(C(=O)NO)cc1)c1ccccc1 [AR-42]
IC50 [1]: 1500 nM
rate of life-threatening adverse events (human subjects; human, in vivo): > 25%
IC50 [2, 7]: 1900 nM
Score (safety) [3]: 0
Score (PK) [3]: 0

CCN(CC)Cc1ccc2cc(COC(=O)Nc3ccc(C(=O)NO)cc3)ccc2c1.Cl.O [Givinostat hydrochloride]
IC50 [1]: 2100 nM
patients with significant adverse events (human subjects; human, in vivo): more than 15%
IC50 [2, 7]: 1400 nM
Score (safety) [3]: 0
Score (PK) [3]: 0

COC(=O)N[C@H](C(=O)N1CCC[C@H]1c1nc(-c2ccc(-c3ccc(-c4c[nH]c([C@@H]5CCCN5C(=O)[C@@H](NC(=O)OC)C(C)C)n4)cc3)cc2)c[nH]1)C(C)C [Daclatasvir]
Cmax ([4]; human, in vivo, 30 mg): 945 nM
t1/2 ([4]; human, in vivo, 30 mg): 12.4 h

COC(=O)N[C@H](C(=O)N1CCC[C@H]1c1nc(-c2ccc3c(c2)O[C@@H](c2ccccc2)n2c-3cc3cc(-c4c[nH]c([C@@H]5CCCN5C(=O)[C@@H](NC(=O)OC)C(C)C)n4)ccc32)c[nH]1)C(C)C [Elbasvir]
AE (%) (human subjects; [8]): 37.5%
SAE (%) (human subjects; [8]): 0%
Cmax [4, 9]: 163 nM
t1/2 [4, 9]: 25 h

C[C@@H]1O[C@@H](O[C@@H]2C=C3CC[C@@H]4[C@H](CC[C@]5(C)[C@@H](c6ccc(=O)oc6)CC[C@]45O)[C@@]3(C)CC2)[C@H](O)[C@H](O)[C@H]1O [Proscillaridin]
IC50 (HEK293T; [10]): 9 nM
IC50 ([1]; Plasmodium falciparum): 300 nM
IC50 (HepG2; [11]): 14 nM
IC50 [2, 6]: 80 nM
IC50 (P.falciparum Dd2): 9950 nM
Score (safety) ([3]; human): 0
Score (PK) [3]: 0

CS(=O)(=O)c1ccc(-c2cnc(N)c(-c3ccc(C(F)(F)F)nc3)c2)cc1 [MMV-390048]
IC50 [1, 5]: 3860 nM
IC50 [1]: 3900 nM
IC50 [2, 6]: 3500 nM
IC50 ([2]; Plasmodium falciparum, NF54, read-out: IC50 (killing and stiffening, given as range)): 3500 to 3900 nM
serum peak concentration ([4]; humans, highest 120 mg dose, ref 37 (McCarthy et al 2020)): 2.8 µM
IC50 (P.falciparum Dd2): 229 nM
Score (safety) [3]: 3
Score (PK) [3]: 2 (Peak plasma concentration between 1/3 IC50 and IC50 (Score = 2))

COC(=O)N[C@H](C(=O)N1CCC[C@H]1C(=O)Nc1ccc([C@@H]2CC[C@@H](c3ccc(NC(=O)[C@@H]4CCCN4C(=O)[C@@H](NC(=O)OC)C(C)C)cc3)N2c2ccc(C(C)(C)C)cc2)cc1)C(C)C [Ombitasvir]
t1/2 ([4]; human, in vivo): 21 to 25 h

COc1ccc(-c2nc(N3CCOCC3)c3sc(CN(C)c4ncc(C(=O)NO)cn4)cc3n2)cn1 [CUDC-907]
IC50 (HEK293T; [10]): 30 nM
IC50 [1, 5]: 3320 nM
IC50 (HepG2; [11]): 3 nM
rate of life-threatening adverse events (human subjects; ref NCT02674750 (CUDC-907), NCT02795819 (AR-42)): > 25%
IC50 [2, 6]: 1860 nM
IC50 (P.falciparum Dd2): 18 nM
Score (safety) [3]: 0
Score (PK) [3]: 0

COC(=O)N[C@H](C(=O)N1CC2(CC2)C[C@H]1c1ncc(-c2ccc3c(c2)C(F)(F)c2cc(-c4ccc5nc([C@@H]6[C@H]7CC[C@H](C7)N6C(=O)[C@@H](NC(=O)OC)C(C)C)[nH]c5c4)ccc2-3)[nH]1)C(C)C [Ledipasvir]
safety in pregnant women (human subjects): can be safely administered to pregnant women
AE (%) (human subjects; [12]): 42.9%
SAE (%) (human subjects; [12]): 0%
Cmax [4, 13]: 362 nM
t1/2 [4, 13]: 39.9 h

COC[C@H]1C[C@@H](c2ncc(-c3ccc4c(c3)COc3cc5c(ccc6nc([C@@H]7CC[C@H](C)N7C(=O)[C@@H](NC(=O)OC)C(C)C)[nH]c65)cc3-4)[nH]2)N(C(=O)[C@H](NC(=O)OC)c2ccccc2)C1 [Velpatasvir]
AE (%) (human subjects; [14]): 42.9%
SAE (%) (human subjects; [14]): 0%
Cmax [4, 15]: 584 nM
t1/2 [4, 15]: 16.8 h

N=C(N)c1ccc(C=C2c3ccccc3-c3ccccc32)cc1 [Paranyline]
IC50 (HEK293T; [10]): 1420 nM
IC50 [1, 5]: 1900 nM
IC50 (HepG2; [11]): 650 nM
IC50 [2, 6]: 3200 nM
IC50 (P.falciparum Dd2): 1870 nM
Score (safety) [3]: 0
Score (PK) [3]: 0
